Test results published in ChEMBL document CHEMBL1201862, “PubChem BioAssay data set” (2004).
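Briefly, cells in 96-well plates were exposed to five compound concentrations for 48 h, and endpoints were estimated by linear interpolation. GI50 = concentration required for 50% inhibition of growth.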 Calls of active or inactive are those of the source. Cut-off read from the data, not from the text of the source: active = GI50 up to about 1.1 µM and inactive = higher.

Legend:
Experiment in all cases: NCI tumour cell line growth inhibition, 48 h
A498 = tested on: A498
ACHN = tested on: ACHN
HCT-15 = tested on: HCT-15
HL-60 = tested on: HL-60
HOP-92 = tested on: HOP-92
LOX IMVI = tested on: LOX IMVI
M14 = tested on: M14
MDA-MB-435 = tested on: MDA-MB-435
NCI-H460 = tested on: NCI-H460
NCI-H522 = tested on: NCI-H522
NCI/ADR-RES = tested on: NCI/ADR-RES
OVCAR-4 = tested on: OVCAR-4
OVCAR-8 = tested on: OVCAR-8
PC-3 = tested on: PC-3
SF-539 = tested on: SF-539
SK-MEL-28 = tested on: SK-MEL-28
SK-OV-3 = tested on: SK-OV-3
SW-620 = tested on: SW-620
T47D = tested on: T47D
UACC-62 = tested on: UACC-62

SMILES: Cc1ccc(SC2=C(N(C)C)C(=O)c3ccccc3C2=O)cc1
- GI50 (A498): 15.9 µM (inactive)
- GI50 (ACHN): 6.87 µM (inactive)
- GI50 (HCT-15): 2.45 µM
- GI50 (HL-60): 0.38 µM (active)
- GI50 (HOP-92): 4.71 µM (inactive)
- GI50 (LOX IMVI): 3.35 µM (inactive)
- GI50 (M14): 3.27 µM (inactive)
- GI50 (MDA-MB-435): 0.444 µM (active)
- GI50 (NCI-H460): 6.3 µM (inactive)
- GI50 (NCI-H522): 1.22 µM (inactive)
- GI50 (NCI/ADR-RES): 0.847 µM (active)
- GI50 (OVCAR-4): 4.06 µM (inactive)
- GI50 (OVCAR-8): 1.91 µM (inactive)
- GI50 (PC-3): 4.11 µM (inactive)
- GI50 (SF-539): 2.79 µM (inactive)
- GI50 (SK-MEL-28): 10.3 µM (inactive)
- GI50 (SK-OV-3): 10.7 µM (inactive)
- GI50 (SW-620): 1.46 µM (inactive)
- GI50 (T47D): 3.35 µM (inactive)
- GI50 (UACC-62): 4.35 µM (inactive)

SMILES: c1ccc(CN2CCC(CNc3ncnc4ccccc34)C2)cc1 (stereo not given)
- GI50 (A498): 41.3 µM (inactive)
- GI50 (ACHN): > 100 µM (inactive)
- GI50 (HCT-15): > 100 µM
- GI50 (HL-60): 25.8 µM (inactive)
- GI50 (HOP-92): 34.8 µM (inactive)
- GI50 (LOX IMVI): 45.3 µM (inactive)
- GI50 (M14): 17.3 µM (inactive)
- GI50 (MDA-MB-435): 45 µM (inactive)
- GI50 (NCI-H460): 44.3 µM (inactive)
- GI50 (NCI-H522): 23 µM (inactive)
- GI50 (NCI/ADR-RES): 61.9 µM (inactive)
- GI50 (OVCAR-4): 35.8 µM (inactive)
- GI50 (OVCAR-8): 83 µM (inactive)
- GI50 (PC-3): 95.3 µM (inactive)
- GI50 (SF-539): 68.5 µM (inactive)
- GI50 (SK-MEL-28): 25.9 µM (inactive)
- GI50 (SK-OV-3): > 100 µM (inactive)
- GI50 (SW-620): > 100 µM (inactive)
- GI50 (T47D): 93.5 µM (inactive)
- GI50 (UACC-62): > 100 µM (inactive)

SMILES: c1ccc(C[N+]23CN4CN(CN(C4)C2)C3)cc1
- GI50 (A498): > 100 µM (inactive)
- GI50 (ACHN): 29.3 µM (inactive)
- GI50 (HCT-15): 31.4 µM
- GI50 (HL-60): 24.1 µM (inactive)
- GI50 (HOP-92): 36.1 µM (inactive)
- GI50 (LOX IMVI): 22 µM (inactive)
- GI50 (M14): 19.7 µM (inactive)
- GI50 (MDA-MB-435): 22 µM (inactive)
- GI50 (NCI-H460): 38.2 µM (inactive)
- GI50 (NCI-H522): > 100 µM (inactive)
- GI50 (NCI/ADR-RES): 78.5 µM (inactive)
- GI50 (OVCAR-4): 36.5 µM (inactive)
- GI50 (OVCAR-8): 30.1 µM (inactive)
- GI50 (PC-3): 17 µM (inactive)
- GI50 (SF-539): 28.6 µM (inactive)
- GI50 (SK-MEL-28): 26.7 µM (inactive)
- GI50 (SK-OV-3): > 100 µM (inactive)
- GI50 (SW-620): 24.1 µM (inactive)
- GI50 (T47D): 28.4 µM (inactive)
- GI50 (UACC-62): 17.3 µM (inactive)

SMILES: CN(C)/C=N/c1cc(=O)n(C)c(=O)n1C
- GI50 (A498): > 100 µM (inactive)
- GI50 (ACHN): > 100 µM (inactive)
- GI50 (HCT-15): > 100 µM
- GI50 (HL-60): > 100 µM (inactive)
- GI50 (HOP-92): > 100 µM (inactive)
- GI50 (LOX IMVI): > 100 µM (inactive)
- GI50 (M14): > 100 µM (inactive)
- GI50 (MDA-MB-435): > 100 µM (inactive)
- GI50 (NCI-H460): > 100 µM (inactive)
- GI50 (NCI-H522): > 100 µM (inactive)
- GI50 (NCI/ADR-RES): > 100 µM (inactive)
- GI50 (OVCAR-4): > 100 µM (inactive)
- GI50 (OVCAR-8): > 100 µM (inactive)
- GI50 (PC-3): > 100 µM (inactive)
- GI50 (SF-539): > 100 µM (inactive)
- GI50 (SK-MEL-28): > 100 µM (inactive)
- GI50 (SK-OV-3): > 100 µM (inactive)
- GI50 (SW-620): > 100 µM (inactive)
- GI50 (T47D): > 100 µM (inactive)
- GI50 (UACC-62): > 100 µM (inactive)

SMILES: COC1/C=C/C(C)C(O)CC(O)/C=C/C(C)C(C(C)C(OC)C(C)CCC(=O)C(C)C(C/C=C/N(C)C=O)OC)OC(=O)/C=C/C=C(\C)CC(OC)CC2=CC(=O)O[C@@H](C(C)C(OC)C1)[C@H]2O (stereo not given in full)
- GI50 (A498): < 0.005 µM (active)
- GI50 (ACHN): < 0.005 µM (active)
- GI50 (HCT-15): < 0.005 µM
- GI50 (HL-60): < 0.005 µM (active)
- GI50 (HOP-92): 0.00612 µM (active)
- GI50 (LOX IMVI): < 0.005 µM (active)
- GI50 (M14): < 0.005 µM (active)
- GI50 (MDA-MB-435): 0.0105 µM (active)
- GI50 (NCI-H460): < 0.005 µM (active)
- GI50 (NCI-H522): < 0.005 µM (active)
- GI50 (NCI/ADR-RES): 0.00656 µM (active)
- GI50 (OVCAR-4): 0.0267 µM (active)
- GI50 (OVCAR-8): < 0.005 µM (active)
- GI50 (PC-3): < 0.005 µM (active)
- GI50 (SF-539): < 0.005 µM (active)
- GI50 (SK-MEL-28): 0.00588 µM (active)
- GI50 (SK-OV-3): < 0.005 µM (active)
- GI50 (SW-620): < 0.005 µM (active)
- GI50 (T47D): 0.0219 µM (active)
- GI50 (UACC-62): 0.00665 µM (active)

SMILES: CCOC(=O)CCC(NC(=O)c1ccc(Oc2nc3ccccc3nc2-c2ccccc2)cc1)C(=O)OCC (stereo not given)
- GI50 (A498): > 50.1 µM (inactive)
- GI50 (ACHN): 7.35 µM (inactive)
- GI50 (HCT-15): > 100 µM
- GI50 (HL-60): > 100 µM (inactive)
- GI50 (HOP-92): 5.51 µM (inactive)
- GI50 (LOX IMVI): 43.7 µM (inactive)
- GI50 (M14): > 62.1 µM (inactive)
- GI50 (MDA-MB-435): > 52.1 µM (inactive)
- GI50 (NCI-H460): > 80.4 µM (inactive)
- GI50 (NCI-H522): 11.3 µM (inactive)
- GI50 (NCI/ADR-RES): 6.34 µM (inactive)
- GI50 (OVCAR-4): 6.55 µM (inactive)
- GI50 (OVCAR-8): 3.55 µM (inactive)
- GI50 (PC-3): 92.9 µM (inactive)
- GI50 (SF-539): 3.6 µM (inactive)
- GI50 (SK-MEL-28): 50.6 µM (inactive)
- GI50 (SK-OV-3): 27.9 µM (inactive)
- GI50 (SW-620): > 100 µM (inactive)
- GI50 (T47D): > 29.8 µM (inactive)
- GI50 (UACC-62): 32.7 µM (inactive)

SMILES: CCCCC(=O)OC[n+]1cccc(-c2c(COC(=O)NC(C)C)c(COC(=O)NC(C)C)c3n2CCC3)c1
- GI50 (A498): 25.8 µM (inactive)
- GI50 (ACHN): 21.3 µM (inactive)
- GI50 (HCT-15): 53.3 µM
- GI50 (HL-60): 10.7 µM (inactive)
- GI50 (HOP-92): 26.3 µM (inactive)
- GI50 (LOX IMVI): 21.7 µM (inactive)
- GI50 (M14): 40.5 µM (inactive)
- GI50 (MDA-MB-435): 64.9 µM (inactive)
- GI50 (NCI-H460): 15 µM (inactive)
- GI50 (NCI-H522): 23 µM (inactive)
- GI50 (NCI/ADR-RES): 34.9 µM (inactive)
- GI50 (OVCAR-4): 31.3 µM (inactive)
- GI50 (OVCAR-8): 44 µM (inactive)
- GI50 (PC-3): 60.7 µM (inactive)
- GI50 (SF-539): 28.6 µM (inactive)
- GI50 (SK-MEL-28): > 100 µM (inactive)
- GI50 (SK-OV-3): > 57.8 µM (inactive)
- GI50 (SW-620): 38.5 µM (inactive)
- GI50 (T47D): > 83.2 µM (inactive)
- GI50 (UACC-62): 20 µM (inactive)

SMILES: CN(C)c1n/c(=N/Cc2ccncc2)ss1
- GI50 (A498): > 100 µM (inactive)
- GI50 (ACHN): 13.5 µM (inactive)
- GI50 (HCT-15): 45 µM
- GI50 (HL-60): 4.39 µM (inactive)
- GI50 (HOP-92): > 63.1 µM (inactive)
- GI50 (LOX IMVI): 16.4 µM (inactive)
- GI50 (M14): 16.8 µM (inactive)
- GI50 (MDA-MB-435): 38.9 µM (inactive)
- GI50 (NCI-H460): > 100 µM (inactive)
- GI50 (NCI-H522): 16.1 µM (inactive)
- GI50 (NCI/ADR-RES): > 72.8 µM (inactive)
- GI50 (OVCAR-4): 18.7 µM (inactive)
- GI50 (OVCAR-8): 17.6 µM (inactive)
- GI50 (PC-3): 26.1 µM (inactive)
- GI50 (SF-539): > 46.9 µM (inactive)
- GI50 (SK-MEL-28): 36.8 µM (inactive)
- GI50 (SK-OV-3): > 40 µM (inactive)
- GI50 (SW-620): 23.9 µM (inactive)
- GI50 (T47D): 10.7 µM (inactive)
- GI50 (UACC-62): 30.2 µM (inactive)
